Experimental data reported in US20040241243A1, “Angiogenesis promotion by prostaglandin compositions and methods” (NexMed (Holdings) Inc., priority 2003, published 2004).

Assays:
EP2 receptor = EP2 receptor (Mus musculus, UniProt Q62053); conditions: read-out: affinity for the EP2 receptor; cited from earlier work
endothelial cells = conditions: in vitro; cited from earlier work
[1] = three months intracavernous injections three times a week; cited from earlier work
[2] = three months intracavernous injections three times a week; patients completing treatment; cited from earlier work
[3] = test system: segments of rat iliac arteries; test: microvascular outgrowth from rat iliac artery ringlets cultured in Matrigel; type: cell-based, Sprague-Dawley rats
Description: Each sample was placed on a reduced-growth factor Matrigel coated coverglass slide in a culture dish filled with serum-free medium. […] The cultures were incubated at 37° C. in a humidified atmosphere with 5% CO2. Digital photographs were taken of growth after 96 hours.
Growth Factor Reduced Matrigel (Passaniti, A., et al., Lab. Invest. 1992 67:518-528) was purchased from Becton Dickinson (Mountain View, Calif.). Cell culture grade PGE1 was purchased from Sigma Chemical. (St. Louis, Mo.). RPIM-1640 and other cell culture reagents were purchased from GIBCO Invitrogen Corp. (Grand Island, N.Y.).
Male Sprague-Dawley rats, two-months old, were used in this study. All animal care, treatments, and procedures were approved by the institutional Committee on Animal Research. The rats were sacrificed by intraperitoneal injection of sodium pentobarbital (50 mg/kg) followed by bilateral thoracotomy and the removal of segments of iliac arteries.
The iliac artery segments isolated from Sprague-Dawley rats were sectioned into ringlets and cultured attached to Matrigel-coated glass coverslips. The coverslips were used as the supporting platform to facilitate samples processing for histological staining and examination. Coverslips were coated as follows. Growth Factor Reduced Matrigel (Becton Dickinson, Mountain View, Calif.) was diluted 3-fold in serum-free RPMI-1640 in a 35-mm culture dish on ice. The diluted Matrigel was then spread onto cold sterilized glass coverslips using a sterilized glass slide as spreader. The coated coverslips were placed in 35-mm culture dishes and incubated at 37° C. for 1 hr to allow the Matrigel to solidify. Iliac artery ringlets were placed on top of Matrigel coated coverslips and covered by 50 μl cold Growth Factor Reduced Matrigel which had been kept in liquid form. After a 5-min incubation at 37° C. to allow the Matrigel to polymerize, 3 ml of serum-free RPMI 1640 medium supplemented with 1×penicillin-streptomycin-fangizone (Cell Culture Facility, University of California, San Francisco) was added. […] The iliac artery ringlet cultures were maintained at 37 ° C. in a humidified atmosphere with 5% CO2.
After 96 hours of incubation, the iliac artery ringlet cultures were examined. Microvascular growths were photographed using a professional DCS-420 digital camera (Eastman Kodak, Rochester, N.Y.) connected to an Olympus microscope and an Apple Macintosh PowerMac computer. All samples were photographed and the images were stored for later analysis. The digital images were analyzed using ChemiImager 4000 software (Alpha Innotech Corporation, San Leandro, Calif.) to determine the maximum length of the microvascular growths.
Statistical analysis was performed using computer software from Primer of Biostatistics, 3rd ed. (Glantz SA, McGraw-Hill, Inc. New York, 1992). The data involving different time points were first analyzed by one-way analysis of variance (ANOVA). If ANOVA indicated a significant difference, the Student-Neuman-Keuls test was used to perform pair-wise comparisons.

VEGF = conditions: systemic treatment of patients; cited from earlier work

EP2 receptor, sequence (Q62053 whole entry): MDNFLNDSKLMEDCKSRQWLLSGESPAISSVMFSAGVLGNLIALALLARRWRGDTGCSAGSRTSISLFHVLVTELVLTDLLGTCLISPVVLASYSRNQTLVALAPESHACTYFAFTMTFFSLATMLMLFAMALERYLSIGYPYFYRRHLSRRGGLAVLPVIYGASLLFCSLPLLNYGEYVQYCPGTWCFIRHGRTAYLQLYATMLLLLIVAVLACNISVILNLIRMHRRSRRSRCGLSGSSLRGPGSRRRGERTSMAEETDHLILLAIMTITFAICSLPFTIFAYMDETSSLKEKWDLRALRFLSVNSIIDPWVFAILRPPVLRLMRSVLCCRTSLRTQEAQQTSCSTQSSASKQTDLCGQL

Compound	Kd (EP2 receptor)	effect on VEGF (endothelial cells)	recovery of spontaneous erections [1]	responsiveness to oral sildenafil therapy [1]	patients reporting recovery of spontaneous erections sufficient for intercourse [2]	peak microvascular growth ([3]; 1 μM PGE1)	Length of longest microvascular growth ([3]; 1 μM PGE1, 96 hours)	Length of longest microvascular growth ([3]; 10 μM PGE1, 96 hours)	Length of longest microvascular growth ([3]; 20 μM PGE1, 96 hours)	Length of longest microvascular growth ([3]; 30 μM PGE1, 96 hours)	Length of longest microvascular growth ([3]; 60 μM PGE1, 96 hours)	effect on microvascular outgrowth ([3]; primary cultures of rat iliac artery segments)	effect on VEGF expression (VEGF)
CCCCC[C@H](O)/C=C/[C@H]1[C@H](O)CC(=O)[C@@H]1C/C=C\CCCC(=O)O [PGE2, prostaglandin E2]	~10 nM	up-regulate VEGF											
Prostaglandin E1 [PGE1]			more likely to recover spontaneous erections	more likely to be responsive to oral sildenafil therapy	8 of the 12	680 micrometers	680 μm	360 μm	100 μm	30 μm	5 μm	enhance microvascular outgrowth	up-regulate expression of VEGF
